Laboratory results as given in PMC5218480 (PLoS ONE, 2017).

Test system: MV-4-11 cells
Experiment: Gene expression microarray analysis (Affymetrix PrimeView) and GSEA
Assay type: cell-based, human
Set-up: RFU PODN (11730768_x_at) / Fold change /veh PODN (11730768_x_at) / RFU LINC00158 (11744669_a_at) / Fold change /veh LINC00158 (11744669_a_at) / RFU DUSP10 (11751237_a_at) / Fold change /veh DUSP10 (11751237_a_at) / RFU ID3 (11757404_x_at) / Fold change /veh ID3 (11757404_x_at) / RFU PLEKHG5 (11737974_s_at) / Fold change /veh PLEKHG5 (11737974_s_at) / RFU LRRC4B (11730491_at) / Fold change /veh LRRC4B (11730491_at) / RFU GIMAP4 (11747438_a_at) / Fold change /veh GIMAP4 (11747438_a_at) / RFU KRT8 (11758183_x_at) / Fold change /veh KRT8 (11758183_x_at) / RFU CNN1 (11734310_a_at) / Fold change /veh CNN1 (11734310_a_at) / RFU VPS37D (11726825_at) / Fold change /veh VPS37D (11726825_at) / RFU C10orf10 (11716522_x_at) / Fold change /veh C10orf10 (11716522_x_at) / RFU KIR2DL2 /// KIR2DL4 /// KIR2DL5A /// KIR2DL5B /// KIR2DS1 /// KIR2DS2 /// KIR2DS3 /// KIR2DS4 /// KIR3DL3 /// KIR3DL3 /// KIR3DS1 (11738374_at) / Fold change /veh KIR2DL2 /// KIR2DL4 /// KIR2DL5A /// KIR2DL5B /// KIR2DS1 /// KIR2DS2 /// KIR2DS3 /// KIR2DS4 /// KIR3DL3 /// KIR3DL3 /// KIR3DS1 (11738374_at) / RFU C1QL1 (11718748_at) / Fold change /veh C1QL1 (11718748_at) / RFU TMPRSS4 (11747572_a_at) / Fold change /veh TMPRSS4 (11747572_a_at) / RFU HAMP (11756126_x_at) / Fold change /veh HAMP (11756126_x_at) / RFU RNFT2 (11725882_a_at) / Fold change /veh RNFT2 (11725882_a_at) / RFU NR4A2 (11747474_a_at) / Fold change /veh NR4A2 (11747474_a_at) / RFU ABCC12 (11746883_a_at) / Fold change /veh ABCC12 (11746883_a_at) / RFU TMEM136 (11760407_x_at) / Fold change /veh TMEM136 (11760407_x_at) / RFU CLDN22 /// WWC2 (11732394_at) / Fold change /veh CLDN22 /// WWC2 (11732394_at) / RFU HLA-DPB1 (11760878_x_at) / Fold change /veh HLA-DPB1 (11760878_x_at) / RFU SPINT1 (11716480_a_at) / Fold change /veh SPINT1 (11716480_a_at) / RFU GAP43 (11754022_s_at) / Fold change /veh GAP43 (11754022_s_at) / RFU A4GNT (11735810_at) / Fold change /veh A4GNT (11735810_at) / RFU PRB3 (11715151_x_at) / Fold change /veh PRB3 (11715151_x_at) / RFU TUBB4B (11761932_at) / Fold change /veh TUBB4B (11761932_at) / RFU CAPN14 (11732068_a_at) / Fold change /veh CAPN14 (11732068_a_at) / RFU TMCC2 (11721928_a_at) / Fold change /veh TMCC2 (11721928_a_at) / RFU IRGQ (11745062_a_at) / Fold change /veh IRGQ (11745062_a_at) / RFU FAM174B (11720279_a_at) / Fold change /veh FAM174B (11720279_a_at) / RFU TMPRSS4 (11748680_a_at) / Fold change /veh TMPRSS4 (11748680_a_at) / RFU FAM212B (11763350_a_at) / Fold change /veh FAM212B (11763350_a_at) / RFU PLEKHG5 (11743358_a_at) / Fold change /veh PLEKHG5 (11743358_a_at) / RFU ZSCAN30 (11745921_a_at) / Fold change /veh ZSCAN30 (11745921_a_at) / RFU CMKLR1 (11741424_a_at) / Fold change /veh CMKLR1 (11741424_a_at) / RFU LOC101060620 /// MAPK8IP1 (11723275_at) / Fold change /veh LOC101060620 /// MAPK8IP1 (11723275_at) / RFU SPTSSB (11747773_x_at) / Fold change /veh SPTSSB (11747773_x_at) / RFU PRSS12 (11739890_at) / Fold change /veh PRSS12 (11739890_at) / RFU BIN1 (11741810_x_at) / Fold change /veh BIN1 (11741810_x_at) / RFU WNT11 (11732464_a_at) / Fold change /veh WNT11 (11732464_a_at) / RFU C10orf10 (11716521_a_at) / Fold change /veh C10orf10 (11716521_a_at) / RFU C5orf56 (11738089_at) / Fold change /veh C5orf56 (11738089_at) / RFU CYB561 (11721691_x_at) / Fold change /veh CYB561 (11721691_x_at) / RFU ANKRD19P (11752326_a_at) / Fold change /veh ANKRD19P (11752326_a_at) / RFU OR2T12 /// OR2T33 /// OR2T8 (11738714_s_at) / Fold change /veh OR2T12 /// OR2T33 /// OR2T8 (11738714_s_at) / RFU VCAN (11748164_a_at) / Fold change /veh VCAN (11748164_a_at) / RFU JSRP1 (11732532_at) / Fold change /veh JSRP1 (11732532_at) / RFU KRTAP10-11 (11738290_x_at) / Fold change /veh KRTAP10-11 (11738290_x_at) / RFU MYO3A (11730013_a_at) / Fold change /veh MYO3A (11730013_a_at) / RFU EBF3 (11725865_a_at) / Fold change /veh EBF3 (11725865_a_at) / RFU CAMK2N1 (11719241_x_at) / Fold change /veh CAMK2N1 (11719241_x_at) / RFU C5orf56 (11738088_a_at) / Fold change /veh C5orf56 (11738088_a_at) / RFU OLFML3 (11715873_a_at) / Fold change /veh OLFML3 (11715873_a_at) / RFU LOC100653217 /// NTM (11731650_a_at) / Fold change /veh LOC100653217 /// NTM (11731650_a_at) / RFU MAPK11 (11762145_a_at) / Fold change /veh MAPK11 (11762145_a_at) / RFU FIZ1 (11724087_x_at) / Fold change /veh FIZ1 (11724087_x_at) / RFU OASL (11726364_x_at) / Fold change /veh OASL (11726364_x_at) / RFU SOX15 (11748057_x_at) / Fold change /veh SOX15 (11748057_x_at) / RFU CD79A (11719716_a_at) / Fold change /veh CD79A (11719716_a_at) / RFU HIST1H1D (11736915_at) / Fold change /veh HIST1H1D (11736915_at) / RFU CASKIN2 (11723855_a_at) / Fold change /veh CASKIN2 (11723855_a_at) / RFU LOC730098 (11760151_x_at) / Fold change /veh LOC730098 (11760151_x_at) / RFU OR4N2 (11742367_at) / Fold change /veh OR4N2 (11742367_at) / RFU PRRT2 (11749266_a_at) / Fold change /veh PRRT2 (11749266_a_at) / RFU SNX32 (11753110_a_at) / Fold change /veh SNX32 (11753110_a_at) / RFU CDHR5 (11726645_a_at) / Fold change /veh CDHR5 (11726645_a_at) / RFU RCAN1 (11760418_a_at) / Fold change /veh RCAN1 (11760418_a_at) / RFU FAM167A (11723789_a_at) / Fold change /veh FAM167A (11723789_a_at) / RFU FAM26E (11764081_at) / Fold change /veh FAM26E (11764081_at) / RFU ISYNA1 (11749810_s_at) / Fold change /veh ISYNA1 (11749810_s_at) / RFU ACY1 (11761880_at) / Fold change /veh ACY1 (11761880_at) / RFU 11764098_at / Fold change /veh 11764098_at / RFU SAMD14 (11745864_x_at) / Fold change /veh SAMD14 (11745864_x_at) / RFU NPB (11741838_a_at) / Fold change /veh NPB (11741838_a_at) / RFU TMPRSS6 (11731388_a_at) / Fold change /veh TMPRSS6 (11731388_a_at) / RFU KRTAP10-2 (11738614_at) / Fold change /veh KRTAP10-2 (11738614_at) / RFU ARHGAP8 /// PRR5-ARHGAP8 (11727945_x_at) / Fold change /veh ARHGAP8 /// PRR5-ARHGAP8 (11727945_x_at) / RFU KRTAP5-7 /// NADSYN1 (11734609_at) / Fold change /veh KRTAP5-7 /// NADSYN1 (11734609_at) / RFU RASL12 (11751679_a_at) / Fold change /veh RASL12 (11751679_a_at) / RFU CDKN2B (11736163_a_at) / Fold change /veh CDKN2B (11736163_a_at) / RFU PRF1 (11729649_at) / Fold change /veh PRF1 (11729649_at) / RFU, ZNF638 /// ZNF638-IT1 / Fold change vs veh, ZNF638 /// ZNF638-IT1 / RFU, PANK3 / Fold change vs veh, PANK3 / RFU, SH3YL1 / Fold change vs veh, SH3YL1 / RFU, ZEB2 / Fold change vs veh, ZEB2 / RFU, NRIP1 / Fold change vs veh, NRIP1 / RFU, PTTG1IP / Fold change vs veh, PTTG1IP / RFU, CAPN2 / Fold change vs veh, CAPN2 / RFU, MED14 / Fold change vs veh, MED14 / RFU, SNORA58 / Fold change vs veh, SNORA58 / RFU, C1orf63 / Fold change vs veh, C1orf63 / RFU, LRRFIP1 / Fold change vs veh, LRRFIP1 / RFU, NDUFAF7 / Fold change vs veh, NDUFAF7 / RFU, SLC12A2 / Fold change vs veh, SLC12A2 / RFU, IBTK / Fold change vs veh, IBTK / RFU, ESF1 / Fold change vs veh, ESF1 / Fold change vs veh, TMEM50B / RFU, TAOK1 / Fold change vs veh, TAOK1 / RFU, ACBD3 / Fold change vs veh, ACBD3 / RFU, TMA16 / Fold change vs veh, TMA16 / RFU, RWDD3 / Fold change vs veh, RWDD3 / RFU, BCAT1 / Fold change vs veh, BCAT1 / RFU, EDEM3 / Fold change vs veh, EDEM3 / RFU, TMEM33 / Fold change vs veh, TMEM33 / RFU, WDR75 / Fold change vs veh, WDR75 / RFU, AHCTF1 / Fold change vs veh, AHCTF1 / RFU, TFRC / Fold change vs veh, TFRC / RFU, ZDHHC17 / Fold change vs veh, ZDHHC17 / RFU, NOM1 / Fold change vs veh, NOM1 / RFU, ARL8B / Fold change vs veh, ARL8B / RFU, ZBTB11 / Fold change vs veh, ZBTB11 / RFU, TAMM41 / Fold change vs veh, TAMM41 / RFU, KIAA1704 /// LOC100996395 / Fold change vs veh, KIAA1704 /// LOC100996395 / RFU, ING1 / Fold change vs veh, ING1 / RFU, TRMT61B / Fold change vs veh, TRMT61B / RFU, FUBP3 / Fold change vs veh, FUBP3 / RFU, TP53 / Fold change vs veh, TP53 / RFU, TNKS2 / Fold change vs veh, TNKS2 / RFU, ZFP14 / Fold change vs veh, ZFP14 / RFU, ACTR2 / Fold change vs veh, ACTR2 / RFU, PPP3R1 / Fold change vs veh, PPP3R1 / RFU, PIK3R1 / Fold change vs veh, PIK3R1 / RFU, HNRNPA1 / Fold change vs veh, HNRNPA1 / RFU, RNF170 / Fold change vs veh, RNF170 / RFU, ZNF28 / Fold change vs veh, ZNF28 / RFU, RNGTT / Fold change vs veh, RNGTT / RFU, OGT / Fold change vs veh, OGT / RFU, BRD1 / Fold change vs veh, BRD1 / RFU, MARS / Fold change vs veh, MARS / RFU, ZNF655 / Fold change vs veh, ZNF655 / RFU, FAHD1 / Fold change vs veh, FAHD1 / RFU, BDP1 / Fold change vs veh, BDP1 / RFU, LRRCC1 / Fold change vs veh, LRRCC1 / RFU, ARID1A / Fold change vs veh, ARID1A / RFU, ZNF146 / Fold change vs veh, ZNF146 / RFU, ZNF330 / Fold change vs veh, ZNF330 / RFU, GPN3 / Fold change vs veh, GPN3 / RFU, C9orf123 / Fold change vs veh, C9orf123 / RFU, N4BP2L2 / Fold change vs veh, N4BP2L2 / RFU, ARFIP1 / Fold change vs veh, ARFIP1 / RFU, FAM179B / Fold change vs veh, FAM179B / RFU, BCL10 / Fold change vs veh, BCL10 / RFU, UHRF1BP1L / Fold change vs veh, UHRF1BP1L / RFU, BET1 / Fold change vs veh, BET1 / RFU, CNOT2 / Fold change vs veh, CNOT2 / RFU, ZNF268 / Fold change vs veh, ZNF268 / Fold change vs veh, ZNF507 / RFU, DGCR2 / Fold change vs veh, DGCR2 / RFU, WDSUB1 / Fold change vs veh, WDSUB1 / Fold change vs veh, HSP90B1 /// MIR3652 / RFU, ADSS / Fold change vs veh, ADSS / RFU, GK / Fold change vs veh, GK / RFU, ZNF148 / Fold change vs veh, ZNF148 / RFU, TAF9 / Fold change vs veh, TAF9 / RFU, SLC1A5 / Fold change vs veh, SLC1A5 / RFU, SLMO2 / Fold change vs veh, SLMO2 / RFU, ABCC4 / Fold change vs veh, ABCC4 / RFU, LOC101060439 /// RAP1B / Fold change vs veh, LOC101060439 /// RAP1B / RFU, RFX7 / Fold change vs veh, RFX7 / RFU, GTPBP10 / Fold change vs veh, GTPBP10 / RFU, CNEP1R1 / Fold change vs veh, CNEP1R1 / RFU, BIVM-ERCC5 /// ERCC5 / Fold change vs veh, BIVM-ERCC5 /// ERCC5 / RFU, ILF3 / Fold change vs veh, ILF3 / RFU 11762660_at / Fold change /veh 11762660_at / RFU VCAN (11757783_s_at) / Fold change /veh VCAN (11757783_s_at) / RFU DDX43 (11728927_at) / Fold change /veh DDX43 (11728927_at) / RFU KRT8 (11758188_x_at) / Fold change /veh KRT8 (11758188_x_at) / RFU NKD1 (11759106_at) / Fold change /veh NKD1 (11759106_at) / RFU SRD5A1 (11742802_a_at) / Fold change /veh SRD5A1 (11742802_a_at) / RFU TPSAB1 /// TPSB2 (11721975_s_at) / Fold change /veh TPSAB1 /// TPSB2 (11721975_s_at) / RFU GSTM3 (11746129_a_at) / Fold change /veh GSTM3 (11746129_a_at) / RFU IL23R (11737362_x_at) / Fold change /veh IL23R (11737362_x_at) / RFU TMEM51 (11727254_a_at) / Fold change /veh TMEM51 (11727254_a_at) / RFU PIWIL2 (11732686_x_at) / Fold change /veh PIWIL2 (11732686_x_at) / RFU ORM1 (11744905_x_at) / Fold change /veh ORM1 (11744905_x_at) / RFU CCDC152 (11743942_at) / Fold change /veh CCDC152 (11743942_at) / RFU ECM1 (11717891_a_at) / Fold change /veh ECM1 (11717891_a_at) / RFU IL23R (11748794_a_at) / Fold change /veh IL23R (11748794_a_at) / RFU TNFAIP8L3 (11732012_x_at) / Fold change /veh TNFAIP8L3 (11732012_x_at) / RFU MBOAT4 (11741988_at) / Fold change /veh MBOAT4 (11741988_at) / RFU 11764193_at / Fold change /veh 11764193_at / RFU TMEM53 (11763286_at) / Fold change /veh TMEM53 (11763286_at) / RFU MAGEB2 (11727129_at) / Fold change /veh MAGEB2 (11727129_at) / RFU TMEM200A (11744735_a_at) / Fold change /veh TMEM200A (11744735_a_at) / RFU CCDC152 (11751479_a_at) / Fold change /veh CCDC152 (11751479_a_at) / RFU FAM211A (11726209_a_at) / Fold change /veh FAM211A (11726209_a_at) / RFU RGS16 (11746705_a_at) / Fold change /veh RGS16 (11746705_a_at) / RFU VCAN (11755009_s_at) / Fold change /veh VCAN (11755009_s_at) / RFU RHOB (11743442_s_at) / Fold change /veh RHOB (11743442_s_at) / RFU RGS16 (11720943_a_at) / Fold change /veh RGS16 (11720943_a_at) / RFU RGS16 (11720944_at) / Fold change /veh RGS16 (11720944_at) / RFU, VPS4B / Fold change vs veh, VPS4B / RFU, CREB1 / Fold change vs veh, CREB1 / RFU, DNAJC13 / Fold change vs veh, DNAJC13 / RFU, GNAQ / Fold change vs veh, GNAQ / RFU, CDK5R1 / Fold change vs veh, CDK5R1 / RFU, ZRANB3 / Fold change vs veh, ZRANB3 / RFU, CUL4A / Fold change vs veh, CUL4A / RFU, CCNY / Fold change vs veh, CCNY / RFU, UFL1 / Fold change vs veh, UFL1 / RFU, COG3 / Fold change vs veh, COG3 / RFU, DIAPH2 / Fold change vs veh, DIAPH2 / RFU, SKA2 / Fold change vs veh, SKA2 / RFU, AFF3 / Fold change vs veh, AFF3 / RFU, LMF1 / Fold change vs veh, LMF1 / RFU, IPO11 / Fold change vs veh, IPO11 / RFU, DFFB / Fold change vs veh, DFFB / RFU, FOXP1 / Fold change vs veh, FOXP1 / RFU, CARD8 / Fold change vs veh, CARD8 / RFU, STRN3 / Fold change vs veh, STRN3 / RFU, ADK / Fold change vs veh, ADK / RFU, RASSF2 / Fold change vs veh, RASSF2 / RFU, WIPF1 / Fold change vs veh, WIPF1 / RFU, LARP1B / Fold change vs veh, LARP1B / RFU, RASA1 / Fold change vs veh, RASA1 / RFU, RB1 / Fold change vs veh, RB1 / RFU, PPFIA1 / Fold change vs veh, PPFIA1 / RFU, MAT2A / Fold change vs veh, MAT2A / RFU, CCT5 / Fold change vs veh, CCT5 / RFU, WDR92 / Fold change vs veh, WDR92 / RFU, CUX1 / Fold change vs veh, CUX1 / RFU, TTC7A / Fold change vs veh, TTC7A / RFU, TMEM135 / Fold change vs veh, TMEM135 / RFU, DEPTOR / Fold change vs veh, DEPTOR / RFU, CPM / Fold change vs veh, CPM / RFU, DNAJB6 / Fold change vs veh, DNAJB6 / RFU, CACNA2D3 / Fold change vs veh, CACNA2D3 / RFU, DTX4 / Fold change vs veh, DTX4 / RFU, TFCP2 / Fold change vs veh, TFCP2 / RFU, GMCL1 /// GMCL1P1 / Fold change vs veh, GMCL1 /// GMCL1P1 / RFU, AEBP2 / Fold change vs veh, AEBP2 / RFU, SNHG1 /// SNORD22 /// SNORD25 /// SNORD26 /// SNORD27 /// SNORD28 /// SNORD29 /// SNORD31 / Fold change vs veh, SNHG1 /// SNORD22 /// SNORD25 /// SNORD26 /// SNORD27 /// SNORD28 /// SNORD29 /// SNORD31 / Fold change (Aza/veh), C12orf56 (ProbeSet 11735607_a_at) / Fold change (ACY-1035/veh), C12orf56 (ProbeSet 11735607_a_at) / Fold change (Aza/veh), FGFR1OP (ProbeSet 11751329_s_at) / Fold change (ACY-1035/veh), FGFR1OP (ProbeSet 11751329_s_at) / Fold change (Aza/veh), VPS36 (ProbeSet 11739960_a_at) / Fold change (ACY-1035/veh), VPS36 (ProbeSet 11739960_a_at) / RFU SYPL1 (11715823_x_at) / Fold change /veh SYPL1 (11715823_x_at) / RFU IGFBP7 (11715501_s_at) / Fold change /veh IGFBP7 (11715501_s_at) / RFU REEP3 (11722064_at) / Fold change /veh REEP3 (11722064_at) / RFU IGLL1 (11728026_x_at) / Fold change /veh IGLL1 (11728026_x_at): dose or concentration left out as unconfirmed
Conditions: MV-4-11 cells, 48 hours

Compound: Nc1ccc(-c2cccs2)cc1NC(=O)c1ccc2c(c1)cc(C1CC1)n2CCN1CCOCC1 [ACY-1035]
- RFU IL23R (11737362_x_at): 7.94 RFU
